{
  "source": "paper PMC8373216",
  "about": "“Development and Preclinical Evaluation of New Inhaled Lipoglycopeptides for the Treatment of Persistent Pulmonary Methicillin-Resistant Staphylococcus aureus Infections” (Antimicrobial Agents and Chemotherapy, 2021)",
  "key": {"[1]": {"assay": "Single-dose nebulized nose-only inhalation PK in healthy rats", "type": "in vivo, rat", "details": "rat, in vivo", "description": "Rats were acclimated in the study facility for approximately 1 week prior to study start. Ten or eleven rats per cohort were loaded into the chamber at the time of dosing. […] An additional airflow set to 6 liters/min was admixed with the nebulizer output to further direct the test articles to the animals. […] The remaining port on the chamber was fit with an aerosol sampling filter for dose determination over a 5 min sampling period. The average dose delivered to the nose of each animal was calculated using an algorithm that was previously described ([49]). […] Animals were euthanized for collection of whole lungs and plasma at time points ranging from immediate postdose (IPD; approximately 30 min after dosing for nebulization) to 168 h postdose (7 days). Drugs were extracted from tissues using customized protein precipitation methods with an appropriate internal standard for each compound and transferred for analysis by LC-MS/MS (Sciex API4500 or API6500+ mass spectrometer [Sciex, Framingham, MA]). GraphPad Prism (La Jolla, CA) was used for statistical analyses and data plotting. […] The data were applied to a noncompartmental analysis after extravascular dosing input and fit to a linear up/log down model. Statistical analysis of in vitro intracellular and biofilm activity was based on a two-way ANOVA with a Bonferroni post test. In vivo statistical analysis was based on the Kolmogorov-Smirnov test."}, "Moraxella catarrhalis": {"tested_on": "Moraxella catarrhalis", "assay": "Expanded panel broth microdilution MIC", "type": "cell-based"}, "[2]": {"tested_on": "Peptostreptococcus anaerobius", "assay": "Expanded panel broth microdilution MIC", "type": "cell-based"}, "E. cloacae": {"tested_on": "E. cloacae", "assay": "Expanded panel broth microdilution MIC", "type": "cell-based", "details": "Enterobacter cloacae, read-out: MIC"}, "Burkholderia cepacia": {"tested_on": "Burkholderia cepacia", "assay": "Expanded panel broth microdilution MIC", "type": "cell-based"}, "[3]": {"tested_on": "MRSA (ATCC BAA 1556; USA300)", "assay": "Acute pulmonary MRSA infection in neutropenic rats, nebulized nose-only inhalation", "type": "in vivo, Staphylococcus aureus", "details": "inhaled at 24 and 32 h postinfection, lungs at 48 h, RV40 14.4 mg/kg, RV94 18.8 mg/kg delivered", "description": "Rats were rendered neutropenic with intraperitoneal (i.p.) cyclophosphamide on day −4 (150 mg/kg) and day −1 (100 mg/kg) relative to the challenge. On day 0 at 0 h, rats were challenged with MRSA via intranasal instillation at a target titer of 8.0 to 8.3 log10 CFU. At 24 and 32 h postchallenge, rats were loaded into a 12-port inhalation dosing tower, where they received nebulized drug or vehicle control treatments by nose-only inhalation. Animals were euthanized at 48 h postinfection for enumeration of lung MRSA titer. MRSA lung titer of test article treatments versus control is plotted for three separate experiments. […] Statistics are based on the Kolmogorov-Smirnov test for drug treatment versus control (RV94, P = 0.01). LOD = 2.1 log10 CFU/lungset.\nMale Sprague Dawley rats (Envigo, Indianapolis, IN) weighing between 225 and 250 g were used in these studies. Rats were housed and acclimated to the study facility as described in the PK methods section. Rats were rendered neutropenic through a series of intraperitoneal cyclophosphamide (Sigma-Aldrich) injections on day −4 (150 mg/kg) and day −1 (100 mg/kg) relative to the challenge. On day 0 at 0 h, rats were challenged with MRSA ATCC BAA 1556 via intranasal instillation at a target titer of 8.0 to 8.3 log10 CFU using optical density and back-counting inoculum CFU. To prepare the inoculum, a frozen aliquot of the organism stored at −80°C was thawed, transferred into TSB, and incubated at 37°C while shaking for 16 h. Cultures were then centrifuged at 2,000 × g for 5 min, and the resulting pellet was resuspended in PBS and equilibrated. For the challenge procedure, rats were first anesthetized through use of 2 to 5% isoflurane in 100% oxygen, then restrained with a scruff grip and a total of 200 μl of inoculum was quickly introduced to one nare. The rat was held in a vertical position until the challenge was fully inhaled. Rats were monitored following challenge to ensure that normal respiration was achieved and then returned to their cage. […] At necropsy, whole lungs were aseptically removed and lung weights were recorded. […]"}, "P. vulgaris": {"tested_on": "P. vulgaris", "assay": "Expanded panel broth microdilution MIC", "type": "cell-based", "details": "Proteus vulgaris; P. vulgaris MMX 9373; read-out: MIC"}, "K. pneumoniae": {"tested_on": "K. pneumoniae", "assay": "Expanded panel broth microdilution MIC", "type": "cell-based"}, "Cutibacterium acnes": {"tested_on": "Cutibacterium acnes", "assay": "Expanded panel broth microdilution MIC", "type": "cell-based"}, "Acinetobacter baumannii": {"tested_on": "Acinetobacter baumannii", "assay": "Expanded panel broth microdilution MIC", "type": "cell-based", "details": "Acinetobacter baumannii; for MIC: read-out: MIC"}, "Streptococcus pneumoniae": {"tested_on": "Streptococcus pneumoniae", "assay": "Expanded panel broth microdilution MIC/MBC", "type": "cell-based"}, "Streptococcus oralis": {"tested_on": "Streptococcus oralis", "assay": "Expanded panel broth microdilution MIC", "type": "cell-based"}, "Pseudomonas aeruginosa": {"tested_on": "Pseudomonas aeruginosa", "assay": "Expanded panel broth microdilution MIC", "type": "cell-based"}, "[4]": {"tested_on": "Peptostreptococcus micros", "assay": "Expanded panel broth microdilution MIC", "type": "cell-based"}, "[5]": {"tested_on": "Staphylococcus haemolyticus", "assay": "Expanded panel broth microdilution MIC", "type": "cell-based"}, "Staphylococcus hominis": {"tested_on": "Staphylococcus hominis", "assay": "Expanded panel broth microdilution MIC", "type": "cell-based"}, "[6]": {"details": "male, Sprague Dawley, inhaled or intranasal"}},
  "note": "Read-outs that look alike come from different tables or passages of the source.",
  "data": [
    {"smiles": "CCCCCCCCCCNCCN[C@@]1(C)C[C@H](O[C@H]2[C@H](Oc3c4cc5cc3Oc3ccc(cc3Cl)[C@@H](O)[C@@H](NC(=O)[C@@H](CC(C)C)NC)C(=O)N[C@@H](CC(N)=O)C(=O)N[C@H]5C(=O)N[C@H]3C(=O)N[C@H](C(=O)N[C@H](C(=O)O)c5cc(O)cc(O)c5-c5cc3ccc5O)[C@H](O)c3ccc(c(Cl)c3)O4)O[C@H](CO)[C@@H](O)[C@@H]2O)O[C@@H](C)[C@H]1O", "note": "[RV40, N-decylaminoethylvancomycin]", "values": [
      {"measurement": "Pulmonary dose", "setting": "[1]; male, Sprague Dawley", "result": 0.30, "unit": "mg/kg"},
      {"measurement": "Drug lung level at 120 h", "setting": "[1]; male, Sprague Dawley, 120 h", "result": 105, "unit": "%"},
      {"measurement": "Kp", "setting": "[1]; [6]", "result": 690},
      {"measurement": "Lung AUC0-∞", "setting": "[1]; [6]", "result": 9800, "unit": "µg·h/g"},
      {"measurement": "Lung Cmax", "setting": "[1]; [6]", "result": 48, "unit": "µg/g"},
      {"measurement": "Plasma Cmax", "setting": "[1]; [6]", "result": 100, "unit": "ng/mL"},
      {"measurement": "Elimination from the lung", "setting": "[1]", "result": "not measurably eliminated from the lung"},
      {"measurement": "MIC range", "setting": "Moraxella catarrhalis", "result": "1 to 2", "unit": "µg/mL"},
      {"measurement": "MIC", "setting": "Moraxella catarrhalis; ATCC8176, M. catarrhalis ATCC 8176, read-out: MIC", "result": 1, "unit": "µg/mL"},
      {"measurement": "MIC", "setting": "Moraxella catarrhalis; ATCC8193, M. catarrhalis ATCC 8193, read-out: MIC", "result": 32, "unit": "µg/mL"},
      {"measurement": "MIC", "setting": "Moraxella catarrhalis; M. catarrhalis MMX 3782, read-out: MIC", "result": 1, "unit": "µg/mL"},
      {"measurement": "MIC", "setting": "[2]; ATCC27337, P. anaerobius ATCC 27337, read-out: MIC", "result": 0.008, "unit": "µg/mL"},
      {"measurement": "MIC", "setting": "[2]; P. anaerobius, 1 isolate, read-out: MIC", "result": 0.008, "unit": "µg/mL"},
      {"measurement": "MIC", "setting": "E. cloacae; ATCC49141, E. cloacae ATCC 49141", "result": "> 64", "unit": "µg/mL"},
      {"measurement": "MIC", "setting": "E. cloacae; ATCCBAA1143, E. cloacae ATCC BAA-1143, AmpC", "result": "> 64", "unit": "µg/mL"},
      {"measurement": "MIC", "setting": "Burkholderia cepacia", "result": "> 64", "unit": "µg/mL"},
      {"measurement": "MIC", "setting": "Burkholderia cepacia; B. cepacia MMX 9040, read-out: MIC", "result": "> 64", "unit": "µg/mL"},
      {"measurement": "Average reduction in lung MRSA titer versus vehicle control", "setting": "[3]", "result": 0.8, "unit": "log10 CFU"},
      {"measurement": "MIC", "setting": "P. vulgaris", "result": "> 64", "unit": "µg/mL"},
      {"measurement": "MIC", "setting": "K. pneumoniae; K. pneumoniae MMX 4679, KPC-2", "result": "> 64", "unit": "µg/mL"},
      {"measurement": "MIC", "setting": "K. pneumoniae; Klebsiella pneumoniae, K. pneumoniae MMX 2542, read-out: MIC", "result": "> 64", "unit": "µg/mL"},
      {"measurement": "MIC", "setting": "Cutibacterium acnes; ATCC6919, P. acnes ATCC 6919, read-out: MIC", "result": 0.008, "unit": "µg/mL"},
      {"measurement": "MIC", "setting": "Cutibacterium acnes; ATCC11827, P. acnes ATCC 11827, read-out: MIC", "result": 0.008, "unit": "µg/mL"},
      {"measurement": "MIC", "setting": "Cutibacterium acnes; C. acnes, 2 isolates, read-out: MIC (median)", "result": 0.008, "unit": "µg/mL"},
      {"measurement": "MIC range", "setting": "Acinetobacter baumannii", "result": "32 to 64", "unit": "µg/mL"},
      {"measurement": "MIC", "setting": "Acinetobacter baumannii; A. baumannii MMX 3372, MDR", "result": 64, "unit": "µg/mL"},
      {"measurement": "MIC", "setting": "Acinetobacter baumannii; A. baumannii MMX 6974, colistinR", "result": 32, "unit": "µg/mL"},
      {"measurement": "MIC", "setting": "Acinetobacter baumannii; NCTC13304, A. baumannii NCTC 13304, OXA-27", "result": "> 64", "unit": "µg/mL"},
      {"measurement": "MIC:MBC", "setting": "Streptococcus pneumoniae; S. pneumoniae PISP, MBC on one organism", "result": 1},
      {"measurement": "MIC", "setting": "Streptococcus pneumoniae; S. pneumoniae PRSP, 1 isolate", "result": "≤0.008", "unit": "µg/mL"},
      {"measurement": "MIC", "setting": "Streptococcus pneumoniae; Streptococcus pneumoniae, ATCC49619, S. pneumoniae ATCC 49619, PISP, read-out: MIC", "result": 0.004, "unit": "µg/mL"},
      {"measurement": "MIC", "setting": "Streptococcus pneumoniae; Streptococcus pneumoniae, S. pneumoniae MMX 432, PRSP, read-out: MIC", "result": "≤ 0.008", "unit": "µg/mL"},
      {"measurement": "MIC", "setting": "Streptococcus pneumoniae; Streptococcus pneumoniae, S. pneumoniae MMX 747, PISP, read-out: MIC", "result": 0.004, "unit": "µg/mL"},
      {"measurement": "MIC", "setting": "Streptococcus pneumoniae; Streptococcus pneumoniae, S. pneumoniae PISP, 2 isolates, read-out: MIC (median)", "result": 0.004, "unit": "µg/mL"},
      {"measurement": "MIC", "setting": "Streptococcus oralis; S. oralis MGS, 1 isolate", "result": 0.015, "unit": "µg/mL"},
      {"measurement": "MIC", "setting": "Streptococcus oralis; Streptococcus oralis, S. oralis (MGS) MMX 5821, read-out: MIC", "result": 0.015, "unit": "µg/mL"},
      {"measurement": "MIC", "setting": "Pseudomonas aeruginosa", "result": "> 64", "unit": "µg/mL"},
      {"measurement": "MIC", "setting": "Pseudomonas aeruginosa; ATCC27853, P. aeruginosa ATCC 27853, read-out: MIC", "result": "> 64", "unit": "µg/mL"},
      {"measurement": "MIC", "setting": "Pseudomonas aeruginosa; P. aeruginosa MMX 2562, MDR, read-out: MIC", "result": "> 64", "unit": "µg/mL"},
      {"measurement": "MIC", "setting": "[4]; P. micros, 1 isolate", "result": 0.06, "unit": "µg/mL"},
      {"measurement": "MIC", "setting": "[4]; Parvimonas micra, P. micros MMX 3546, read-out: MIC", "result": 0.06, "unit": "µg/mL"},
      {"measurement": "MIC", "setting": "[5]; ATCC29970, S. haemolyticus ATCC 29970, read-out: MIC", "result": 0.015, "unit": "µg/mL"},
      {"measurement": "MIC", "setting": "[5]; S. haemolyticus, 1 isolate, read-out: MIC", "result": 0.015, "unit": "µg/mL"},
      {"measurement": "MIC", "setting": "Staphylococcus hominis; ATCC27844, S. hominis ATCC 27844, read-out: MIC", "result": 0.015, "unit": "µg/mL"},
      {"measurement": "MIC", "setting": "Staphylococcus hominis; S. hominis, 1 isolate, read-out: MIC", "result": 0.015, "unit": "µg/mL"}
    ]}
  ]
}
